Molecules are shown by their SMILES.

The target in the test is T1, human GnRH receptor (Homo sapiens, UniProt P30968).
T1 sequence (P30968 1-328): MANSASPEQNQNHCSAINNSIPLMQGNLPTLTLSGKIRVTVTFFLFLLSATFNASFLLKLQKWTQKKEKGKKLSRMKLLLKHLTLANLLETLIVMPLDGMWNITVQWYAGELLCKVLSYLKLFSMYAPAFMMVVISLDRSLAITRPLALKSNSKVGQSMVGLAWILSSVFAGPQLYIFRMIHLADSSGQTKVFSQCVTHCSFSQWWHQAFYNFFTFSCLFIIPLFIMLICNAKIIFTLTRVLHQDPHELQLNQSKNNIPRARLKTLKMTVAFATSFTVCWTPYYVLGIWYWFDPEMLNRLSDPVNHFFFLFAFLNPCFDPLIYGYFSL
Put plainly: IP-One HTRF assay with buserelin (at EC80) stimulation. The test is classed as cell-based. Particulars: CHO cells stably expressing human GnRH receptor, read-out: Potency in IP-One HTRF assay, given as IC50. The method, boiled down: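 CHO cells stably expressing human GnRH receptor, preincubated 1 h at 37° C with IP1-d2, were exposed to compound and buserelin at EC80 for 1 h at 37° C. After lysis with Tb-anti-IP1 antibody (1 h, 22° C), 665/620 nm HTRF ratio read; 10 concentrations, 20 μM–1 nM, duplicates, 4-parameter IC50.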
For orientation: In TR-FRET formats the signal depends on donor and acceptor labels being close together.
What is called IC50 is the concentration that gives 50% inhibition. `COc1cccc(S(=O)(=O)N2c3ccc(C(=O)Nc4cccc(S(=O)(=O)N(C)C)c4)cc3C3(CCS(=O)(=O)CC3)C2C2CC2)c1` (single isomer, unassigned) [Example 43.2, 2-cyclopropyl-N-[3-(N,N-dimethylsulfamoyl)phenyl]-1-[(3-methoxyphenyl)sulfonyl]-1,2,2′,3′,5′,6′-hexahydrospiro[indole-3,4′-thiopyran]-5-carboxamide 1′,1′-dioxide]: the IC50 came to 36 nM.
Consider `COc1cccc(S(=O)(=O)N2c3ccc(C(=O)NCc4ccccc4Cl)cc3C3(CCS(=O)(=O)CC3)C2C2CC2)c1` (single isomer, unassigned) [Example 44.1, N-(2-chlorobenzyl)-2-cyclopropyl-1-[(3-methoxyphenyl)sulfonyl]-1,2,2′,3′,5′,6′-hexahydrospiro[indole-3,4′-thiopyran]-5-carboxamide 1′,1′-dioxide], for which the 50% inhibitory concentration (IC50) was 25 nM.
As for `COc1cccc(S(=O)(=O)N2c3ccc(C(=O)NCc4ccccc4Cl)cc3C3(CCS(=O)(=O)CC3)C2C2CC2)c1` (single isomer, unassigned) [Example 44.2, N-(2-chlorobenzyl)-2-cyclopropyl-1-[(3-methoxyphenyl)sulfonyl]-1,2,2′,3′,5′,6′-hexahydrospiro[indole-3,4′-thiopyran]-5-carboxamide 1′,1′-dioxide], the figure is 302 nM.
Under `COc1cccc(S(=O)(=O)N2c3ccc(C(=O)NCc4ncccc4C)cc3C3(CCS(=O)(=O)CC3)C2C2CC2)c1` (single isomer, unassigned) [Example 45.1, 2-cyclopropyl-1-[(3-methoxyphenyl)sulfonyl]-N-[(3-methylpyridin-2-yl)methyl]-1,2,2′,3′,5′,6′-hexahydrospiro[indole-3,4′-thiopyran]-5-carboxamide 1′,1′-dioxide] stands 253 nM; under `COc1cccc(S(=O)(=O)N2c3ccc(C(=O)NCc4ncccc4C)cc3C3(CCS(=O)(=O)CC3)C2C2CC2)c1` (single isomer, unassigned) [Example 45.2, 2-cyclopropyl-1-[(3-methoxyphenyl)sulfonyl]-N-[(3-methylpyridin-2-yl)methyl]-1,2,2′,3′,5′,6′-hexahydrospiro[indole-3,4′-thiopyran]-5-carboxamide 1′,1′-dioxide], 4460 nM.
`COc1cccc(S(=O)(=O)N2c3ccc(C(=O)NCc4ccc(F)cc4Cl)cc3C3(CCS(=O)(=O)CC3)C2C2CC2)c1` (single isomer, unassigned) [Example 46.1, N-(2-chloro-4-fluorobenzyl)-2-cyclopropyl-1-[(3-methoxyphenyl)sulfonyl]-1,2,2′,3′,5′,6′-hexahydrospiro[indole-3,4′-thiopyran]-5-carboxamide 1′,1′-dioxide]: the IC50 came out at 50 nM.
With `COc1cccc(S(=O)(=O)N2c3ccc(C(=O)NCc4ccc(F)cc4Cl)cc3C3(CCS(=O)(=O)CC3)C2C2CC2)c1` (single isomer, unassigned) [Example 46.2, N-(2-chloro-4-fluorobenzyl)-2-cyclopropyl-1-[(3-methoxyphenyl)sulfonyl]-1,2,2′,3′,5′,6′-hexahydrospiro[indole-3,4′-thiopyran]-5-carboxamide 1′,1′-dioxide], the half-inhibitory concentration (IC50) turned out to be 732 nM.
With `COc1cccc(S(=O)(=O)N2c3ccc(C(=O)NCc4ccccc4F)cc3C3(CCS(=O)(=O)CC3)C2C2CC2)c1` (single isomer, unassigned) [Example 47.1, 2-cyclopropyl-N-(2-fluorobenzyl)-1-[(3-methoxyphenyl)sulfonyl]-1,2,2′,3′,5′,6′-hexahydrospiro[indole-3,4′-thiopyran]-5-carboxamide 1′,1′-dioxide], the IC50 turned out to be 73 nM.
Under `COc1cccc(S(=O)(=O)N2c3ccc(C(=O)NCc4ccccc4F)cc3C3(CCS(=O)(=O)CC3)C2C2CC2)c1` (single isomer, unassigned) [Example 47.2, 2-cyclopropyl-N-(2-fluorobenzyl)-1-[(3-methoxyphenyl)sulfonyl]-1,2,2′,3′,5′,6′-hexahydrospiro[indole-3,4′-thiopyran]-5-carboxamide 1′,1′-dioxide] stands 8870 nM; under `O=C(O)c1cccc(NC(=O)c2ccc3c(c2)C2(CCS(=O)(=O)CC2)C(C2CC2)N3S(=O)(=O)c2ccc(F)cc2)c1` (single isomer, unassigned) [Example 49.1, 3-[({2-cyclopropyl-1-[(4-fluorophenyl)sulfonyl]-1′,1′-dioxido-1,2,2′,3′,5′,6′-hexahydrospiro[indole-3,4′-thiopyran]-5-yl}carbonyl)amino]benzoic acid], 40 nM.
Take `O=C(O)c1cccc(NC(=O)c2ccc3c(c2)C2(CCS(=O)(=O)CC2)C(C2CC2)N3S(=O)(=O)c2ccc(F)cc2)c1` (single isomer, unassigned) [Example 49.2, 3-[({2-cyclopropyl-1-[(4-fluorophenyl)sulfonyl]-1′,1′-dioxido-1,2,2′,3′,5′,6′-hexahydrospiro[indole-3,4′-thiopyran]-5-yl}carbonyl)amino]benzoic acid]: the IC50 was 109 nM.
Under `NC(=O)c1cccc(NC(=O)c2ccc3c(c2)C2(CCS(=O)(=O)CC2)C(C2CC2)N3S(=O)(=O)c2ccc(F)cc2)c1` (single isomer, unassigned) [Example 51.1, N-(3-carbamoylphenyl)-2-cyclopropyl-1-[(4-fluorophenyl)sulfonyl]-1,2,2′,3′,5′,6′-hexahydrospiro[indole-3,4′-thiopyran]-5-carboxamide 1′,1′-dioxide] stands 80 nM.
`NC(=O)c1cccc(NC(=O)c2ccc3c(c2)C2(CCS(=O)(=O)CC2)C(C2CC2)N3S(=O)(=O)c2ccc(F)cc2)c1` (single isomer, unassigned) [Example 51.2, N-(3-carbamoylphenyl)-2-cyclopropyl-1-[(4-fluorophenyl)sulfonyl]-1,2,2′,3′,5′,6′-hexahydrospiro[indole-3,4′-thiopyran]-5-carboxamide 1′,1′-dioxide]: the IC50 turned out to be 1180 nM.
As for `COC(=O)c1cccc(S(=O)(=O)N2c3ccc(C(=O)NCc4ccccc4Cl)cc3C3(CCS(=O)(=O)CC3)C2C2CC2)c1` (single isomer, unassigned) [Example 60.1, methyl 3-({5-[(2-chlorobenzyl)carbamoyl]-2-cyclopropyl-1′,1′-dioxido-2′,3′,5′,6′-tetrahydrospiro[indole-3,4′-thiopyran]-1(2H)-yl}sulfonyl)benzoate], the figure is 55 nM.
As for `COC(=O)c1cccc(S(=O)(=O)N2c3ccc(C(=O)NCc4ccccc4Cl)cc3C3(CCS(=O)(=O)CC3)C2C2CC2)c1` (single isomer, unassigned) [Example 60.2, methyl 3-({5-[(2-chlorobenzyl)carbamoyl]-2-cyclopropyl-1′,1′-dioxido-2′,3′,5′,6′-tetrahydrospiro[indole-3,4′-thiopyran]-1(2H)-yl}sulfonyl)benzoate], the IC50 turned out to be 1140 nM.
Turning to `O=C(O)c1cccc(S(=O)(=O)N2c3ccc(C(=O)NCc4ccccc4Cl)cc3C3(CCS(=O)(=O)CC3)C2C2CC2)c1` (single isomer, unassigned) [Example 61.1, 3-({5-[(2-chlorobenzyl)carbamoyl]-2-cyclopropyl-1′,1′-dioxido-2′,3′,5′,6′-tetrahydrospiro[indole-3,4′-thiopyran]-1(2H)-yl}sulfonyl)benzoic acid], the 50% inhibitory concentration (IC50) was determined as 84 nM.
As for `O=C(O)c1cccc(S(=O)(=O)N2c3ccc(C(=O)NCc4ccccc4Cl)cc3C3(CCS(=O)(=O)CC3)C2C2CC2)c1` (single isomer, unassigned) [Example 61.2, 3-({5-[(2-chlorobenzyl)carbamoyl]-2-cyclopropyl-1′,1′-dioxido-2′,3′,5′,6′-tetrahydrospiro[indole-3,4′-thiopyran]-1(2H)-yl}sulfonyl)benzoic acid], the figure is 2010 nM; as for `COc1cccc(S(=O)(=O)N2c3ccc(C(=O)Nc4cccc(S(=O)(=O)N=C(N(C)C)N(C)C)c4)cc3C3(CCS(=O)(=O)CC3)C2C2CC2)c1` (single isomer, unassigned) [Example 62.1, N-(3-{[bis(dimethylamino)methylidene]sulfamoyl}phenyl)-2-cyclopropyl-1-[(3-methoxyphenyl)sulfonyl]-1,2,2′,3′,5′,6′-hexahydrospiro[indole-3,4′-thiopyran]-5-carboxamide 1′,1′-dioxide], 6430 nM.
Under `COc1cccc(S(=O)(=O)N2c3ccc(C(=O)Nc4cccc(S(=O)(=O)N=C(N(C)C)N(C)C)c4)cc3C3(CCS(=O)(=O)CC3)C2C2CC2)c1` (single isomer, unassigned) [Example 62.2, N-(3-{[bis(dimethylamino)methylidene]sulfamoyl}phenyl)-2-cyclopropyl-1-[(3-methoxyphenyl)sulfonyl]-1,2,2′,3′,5′,6′-hexahydrospiro[indole-3,4′-thiopyran]-5-carboxamide 1′,1′-dioxide] stands 4.8 nM; under `O=C(Nc1ccon1)c1ccc2c(c1)C1(CCS(=O)(=O)CC1)C(C1CC1)N2S(=O)(=O)c1ccc(F)cc1` (single isomer, unassigned) [Example 63.1, 2-cyclopropyl-1-[(4-fluorophenyl)sulfonyl]-N-(1,2-oxazol-3-yl)-1,2,2′,3′,5′,6′-hexahydrospiro[indole-3,4′-thiopyran]-5-carboxamide 1′,1′-dioxide], 88 nM.

The values above are taken from US20140357655A1, “SPIROINDOLINE DERIVATIVES AS GONADOTROPIN- RELEASING HORMONE RECEPTOR ANTAGONISTS” (Bayer Intellectual Property GmbH, priority 2012, published 2014).
